Measurements taken from patent publication US10435388B2, “Selective inhibitors of clinically important mutants of the EGFR tyrosine kinase” (CS PHARMATECH LIMITED, priority 2016, dated 2019).

Experiments:
[1] = test system: LoVo cells (unmutated EGFR wild type); assay: LoVo growth inhibition assay (cell proliferation), Method A; format: cell-based; details: Homo sapiens, cellular proliferation, 72 h, CellTiter-Glo (Table 1), read-out: LoVo IC50 (nM) WT
Description: (§1) Cell Proliferation Assays—Method A
LoVo Growth Inhibition Assay (Cell Proliferation)
The rest of the procedure was carried out in the same manner as described for the H1975 cells.

[2] = target: EGFR_T790M/L858R (Homo sapiens, UniProt P00533, L858R/T790M); assay: Enzyme assay, IC50 for double-mutant EGFR (EGFR_T790M/L858R) (Caliper); format: biochemical; details: enzyme phosphorylation assay; read-out: EGFR_L858R/T790 IC50
Description: (§2) Using the same technique as described in the previous paragraph, various mutated forms of the epidermal growth factor receptor may be isolated from appropriate cell lines which contain them. For example, the EGFR de1746-750 mutant protein may be extracted from PC-9 cells, and the L858R/T790M double mutant EGFR protein may be isolated from H1975 cells.
Determination of IC50 Values for Double-Mutant EGFR (EGFR_T790M/L858R)
Dilute all compounds to 500 μM stock solutions in 100% DMSO and make a serial of 4-fold dilution for 10 does. “Max” and “Min” control contain 100% DMSO. “Max” stands for […], “Min” stands for low control without compounds. Transfer 10 μl of compounds to 90 μl of 1× kinase base buffer to make intermediate dilution. […] Incubate at RT for 1 hr and 25 μl stop buffer to end up reaction. Collect conversion data from Caliper and conversion data from Caliper program. Fit the data in XLfit to obtain IC50 values.

[3] = test system: NCI-H1975 cells (EGFR L858R/T790 double mutant); assay: H1975 inhibition assay (cell proliferation), Method A; format: cell-based; details: Homo sapiens; cellular proliferation, NCI-H1975 cells, 72 h, CellTiter-Glo (Table 1); read-out: NCI-H1975 IC50 (nM) DM
Description: as §1
H1975 Inhibition Assay (Cell Proliferation)
(§3) The final concentration was 4,000 cells/well. Add medium only as low control.
(§4) Day-2: Test compounds were dissolved in DMSO at 0.2 mM (200×).
(§5) Day-5: After 72 hours incubation, remove the plates from incubator and equilibrate at room temperature for 15 minutes. Incubate the CellTiter Glo reagents (Promega, G9243) at 37° C. before the experiment. The buffer was equilibrated to room temperature and used to dissolve the substrate. To determine the cell viability, add 30 μL of CellTiter-Glo reagent into each well to be detected. Then shake the plates at room temperature for 10 min and followed by plate read on Envision (PerkinElmer).
(§6) For estimation of IC50, the luminescence readout are transformed to % Inhibition by applying the following equation: The IC50 was then
(§7) [formula] calculated by fitting in XLFit to a four parameters logistic curve.

[4] = target: EGFR_d746-750 (Homo sapiens, UniProt P00533, DEL746-750); assay: Enzyme assay, IC50 for single mutant EGFR_d746-750 (Caliper); format: biochemical; details: enzyme phosphorylation assay
Description: as §2
Determination of IC50 Values for Single Mutant EGFR_d746-750
Dilute all compounds to 500 μM stock solutions in 100% DMSO and make a serial of 4-fold dilution for 10 doses. “Max” and “Min” control contain 100% DMSO. “Max” stands for […], “Min” stands for low control without compounds. Transfer 10 μl of compounds to 90 μl of 1× kinase base buffer to make intermediate dilution. […] Incubate at RT for 1 hr and 25 μl stop buffer to end up reaction. Collect conversion data from Caliper and conversion data from Caliper program. Fit the data in XLfit to obtain IC50 values.

[5] = test system: PC9 cells (EGFR d746-750 single mutant); assay: PC-9 growth inhibition assay (cell proliferation), Method A; format: cell-based, human; details: Homo sapiens, PC-9; cellular proliferation, PC9 cells, 72 h, CellTiter-Glo (Table 1); read-out: PC9 IC50 (nM) SM
Description: as §1, §3, §4, §5, §6, §7
PC-9 Growth Inhibition Assay (Cell Proliferation)
The inhibition assay for PC-9 cells was processed in the same manner as described for the H1975 cells.

[6] = target: T1, Wt EGFR (Homo sapiens, UniProt P00533); assay: Enzyme assay, IC50 for wt EGFR (Caliper); format: biochemical; details: enzyme phosphorylation assay; read-out: EGFR_WT IC50
T1 construct: isolated from A431 human epidermoid carcinoma cells which overexpress EGF receptor; endogenous in cells; host or cells: A431 human epidermoid carcinoma cells (receptor purified on wheat germ agglutinin sepharose)
Description: Purification of Epidermal Growth Factor Receptor Tyrosine Kinase Human EGF receptor tyrosine kinase was isolated from A431 human epidermoid carcinoma cells which overexpress EGF receptor by the following methods. Cells were grown in roller bottles in 50% Delbuco's Modified Eagle and 50% HAM F-12 nutrient media (Gibco) containing 10% fetal calf serum. Approximately 10^9 cells were lysed in two volumes of buffer containing 20 mM 2-(4N-[2-hydroxyethyl]piperazin-1-yl)ethanesulfonic acid (hepes), pH 7.4, 5 mM ethylene glycol bis(2-aminoethyl ether) N,N,N′,N′-tetraacetic acid, 1% Triton X-1OO, 10% glycerol. 0.1 mM sodium orthovanadate, 5 mM sodium fluoride, 4 mM pyrophosphate, 4 mM benzamide, 1 mM dithiothreitol, 80 μg/mL aprotinin, 40 μg/mL leupeptin and 1 mM phenylmethylsulfonyl fluoride. After centrifugation at 25,000×g for 10 minutes, the supernatant was equilibrated for 2 h at […], with 10 mL of wheat germ agglutinin sepharose that was previously equilibrated with 50 mM Hepes, 10% glycerol, 0.1% Triton X-100 and 150 mM NaCl, pH 7.5, (equilibration buffer). Contaminating proteins were washed from the resin with 1M NaCl in equilibration buffer, and the enzyme was eluted with 0.5M N-acetyl-1-D-glucosamine in equilibration buffer, followed by 1 mM urea. The enzyme was eluted with 0.1 mg/ml EGF.
Determination of IC50 Values for Wt EGFR
Dilute all compounds to 500 μM stock solutions in 100% DMSO and make a serial of 4-fold dilution for 10 does. “Max” and “Min” control contain 100% DMSO. “Max” stands for […], “Min” stands for low control without compounds. Transfer 10 μl of compounds to 90 μl of Ix kinase base buffer to make intermediate dilution. Transfer 5 μl of intermediate dilution compounds to the 384-well assay plate, then 10 μl 2.5× enzyme buffer containing (20 nM EGFR, 5 mM DTT, 1× kinase base buffer) were added to assay plate. […] Incubate at RT for 1 hr and 25 μl stop buffer to end up reaction. Collect conversion data from Caliper and conversion data from Caliper program. Fit the data in XLfit to obtain IC50 values.

EGFR_d746-750, sequence (P00533 with tags, fused parts or gaps DEL746-750): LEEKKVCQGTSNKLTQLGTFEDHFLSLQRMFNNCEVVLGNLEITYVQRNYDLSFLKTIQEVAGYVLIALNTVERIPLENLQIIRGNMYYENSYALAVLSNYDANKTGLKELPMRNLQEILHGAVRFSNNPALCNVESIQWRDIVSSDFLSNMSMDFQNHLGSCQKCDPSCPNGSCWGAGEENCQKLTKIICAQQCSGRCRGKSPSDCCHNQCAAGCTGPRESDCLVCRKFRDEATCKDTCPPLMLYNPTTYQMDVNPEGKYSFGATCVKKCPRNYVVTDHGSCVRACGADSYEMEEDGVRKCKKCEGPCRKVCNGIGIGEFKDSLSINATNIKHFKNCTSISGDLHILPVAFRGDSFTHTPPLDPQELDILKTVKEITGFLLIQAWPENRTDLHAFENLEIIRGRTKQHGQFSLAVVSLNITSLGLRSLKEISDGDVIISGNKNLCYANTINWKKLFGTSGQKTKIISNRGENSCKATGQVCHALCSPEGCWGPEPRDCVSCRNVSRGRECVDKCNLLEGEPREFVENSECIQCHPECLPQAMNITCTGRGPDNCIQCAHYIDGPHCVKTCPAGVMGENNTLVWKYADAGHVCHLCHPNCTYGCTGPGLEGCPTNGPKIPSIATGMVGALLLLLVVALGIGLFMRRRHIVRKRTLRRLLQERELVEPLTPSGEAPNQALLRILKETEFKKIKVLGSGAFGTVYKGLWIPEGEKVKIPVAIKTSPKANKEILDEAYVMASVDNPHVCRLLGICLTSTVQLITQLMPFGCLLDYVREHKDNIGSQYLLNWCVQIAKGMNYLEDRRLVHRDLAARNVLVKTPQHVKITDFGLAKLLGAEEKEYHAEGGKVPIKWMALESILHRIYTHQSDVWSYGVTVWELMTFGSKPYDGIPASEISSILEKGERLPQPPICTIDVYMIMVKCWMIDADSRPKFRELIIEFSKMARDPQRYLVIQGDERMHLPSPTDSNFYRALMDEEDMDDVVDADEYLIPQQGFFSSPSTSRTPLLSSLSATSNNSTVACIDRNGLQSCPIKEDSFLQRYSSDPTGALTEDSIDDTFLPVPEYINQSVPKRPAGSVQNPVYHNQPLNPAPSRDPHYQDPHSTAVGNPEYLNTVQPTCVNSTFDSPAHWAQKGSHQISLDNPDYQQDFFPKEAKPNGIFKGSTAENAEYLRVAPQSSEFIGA
T1 sequence (P00533 25-1210): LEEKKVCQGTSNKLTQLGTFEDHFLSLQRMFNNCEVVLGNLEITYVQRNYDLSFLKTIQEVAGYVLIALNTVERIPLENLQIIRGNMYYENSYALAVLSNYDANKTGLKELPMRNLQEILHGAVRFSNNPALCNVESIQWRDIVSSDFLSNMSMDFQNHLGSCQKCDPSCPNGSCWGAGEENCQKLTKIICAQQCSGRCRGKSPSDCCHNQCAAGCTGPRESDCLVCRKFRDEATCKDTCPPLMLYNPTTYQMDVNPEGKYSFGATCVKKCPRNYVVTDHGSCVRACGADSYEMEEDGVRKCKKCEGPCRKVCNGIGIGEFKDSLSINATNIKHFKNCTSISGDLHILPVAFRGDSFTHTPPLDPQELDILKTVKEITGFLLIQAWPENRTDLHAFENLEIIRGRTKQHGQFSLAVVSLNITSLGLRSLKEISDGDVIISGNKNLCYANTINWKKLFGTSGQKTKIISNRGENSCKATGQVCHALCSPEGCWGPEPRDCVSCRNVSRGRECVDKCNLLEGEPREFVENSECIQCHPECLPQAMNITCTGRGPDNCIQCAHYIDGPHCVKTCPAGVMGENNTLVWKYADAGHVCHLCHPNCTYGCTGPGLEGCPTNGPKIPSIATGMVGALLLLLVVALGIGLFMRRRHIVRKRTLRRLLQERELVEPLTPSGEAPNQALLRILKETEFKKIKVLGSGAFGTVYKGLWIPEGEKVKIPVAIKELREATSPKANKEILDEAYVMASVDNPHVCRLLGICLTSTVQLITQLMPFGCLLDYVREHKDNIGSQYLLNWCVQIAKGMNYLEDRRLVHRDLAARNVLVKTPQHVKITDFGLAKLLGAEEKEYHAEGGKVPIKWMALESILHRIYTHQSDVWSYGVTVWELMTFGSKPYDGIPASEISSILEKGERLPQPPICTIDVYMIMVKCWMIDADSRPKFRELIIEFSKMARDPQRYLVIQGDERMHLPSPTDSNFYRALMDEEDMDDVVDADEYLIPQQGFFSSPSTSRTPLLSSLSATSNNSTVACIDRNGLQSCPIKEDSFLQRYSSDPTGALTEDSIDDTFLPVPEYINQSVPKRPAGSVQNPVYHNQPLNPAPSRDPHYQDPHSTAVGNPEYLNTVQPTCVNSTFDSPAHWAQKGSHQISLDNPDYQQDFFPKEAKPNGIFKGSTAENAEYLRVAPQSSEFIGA
EGFR_T790M/L858R, sequence (P00533 25-1210 T790M/L858R): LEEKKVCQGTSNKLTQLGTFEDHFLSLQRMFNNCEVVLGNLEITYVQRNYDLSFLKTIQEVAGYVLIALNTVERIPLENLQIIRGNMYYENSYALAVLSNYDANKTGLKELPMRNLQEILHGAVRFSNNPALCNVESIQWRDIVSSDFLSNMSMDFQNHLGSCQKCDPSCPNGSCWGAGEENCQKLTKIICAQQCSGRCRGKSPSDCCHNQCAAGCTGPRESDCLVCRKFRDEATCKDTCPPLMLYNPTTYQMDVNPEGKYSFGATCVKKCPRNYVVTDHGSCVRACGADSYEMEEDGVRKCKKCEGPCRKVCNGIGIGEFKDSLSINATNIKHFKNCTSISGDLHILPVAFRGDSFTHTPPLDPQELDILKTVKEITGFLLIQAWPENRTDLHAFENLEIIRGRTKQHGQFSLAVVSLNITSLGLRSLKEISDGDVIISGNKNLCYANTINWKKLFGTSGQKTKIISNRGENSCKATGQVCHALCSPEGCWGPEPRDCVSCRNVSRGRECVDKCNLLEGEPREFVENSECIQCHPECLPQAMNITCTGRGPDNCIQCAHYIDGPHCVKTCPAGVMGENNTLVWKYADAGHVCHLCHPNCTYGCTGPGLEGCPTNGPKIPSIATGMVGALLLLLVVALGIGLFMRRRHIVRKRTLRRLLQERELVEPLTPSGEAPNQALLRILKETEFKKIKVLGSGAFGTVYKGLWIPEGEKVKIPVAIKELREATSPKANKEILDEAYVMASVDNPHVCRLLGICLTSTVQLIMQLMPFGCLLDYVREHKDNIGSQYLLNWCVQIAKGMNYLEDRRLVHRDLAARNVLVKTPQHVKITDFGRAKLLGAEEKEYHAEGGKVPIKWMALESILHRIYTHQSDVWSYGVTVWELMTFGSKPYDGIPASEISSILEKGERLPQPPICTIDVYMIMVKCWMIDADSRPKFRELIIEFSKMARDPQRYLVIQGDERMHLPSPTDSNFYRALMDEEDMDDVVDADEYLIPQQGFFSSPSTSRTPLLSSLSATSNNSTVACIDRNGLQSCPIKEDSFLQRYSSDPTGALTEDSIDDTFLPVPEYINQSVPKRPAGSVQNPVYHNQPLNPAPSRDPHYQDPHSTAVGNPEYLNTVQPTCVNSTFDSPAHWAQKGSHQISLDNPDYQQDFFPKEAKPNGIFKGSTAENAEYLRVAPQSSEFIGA

SMILES: C=CC(=O)Nc1cc(Nc2nccc(-n3cc(CO)c4ccccc43)n2)c(OC)cc1N(C)CCN(C)C [Example 8, N-(2-(N-(2-(N,N-Dimethylamino)ethyl)-N-methylamino)-4-methoxy-5-(4-(3-(hydroxymethyl)indol-1-yl)pyrimidin-2-ylamino)phenyl) propenamide]
- IC50 [1]: 6650 nM
- IC50 [2]: 1.8 nM
- IC50 [3]: 2.9 nM
- IC50 [4]: 1.2 nM
- IC50 [5]: 3.5 nM
- IC50 [6]: 2.1 nM

SMILES: C=CC(=O)Nc1cc(Nc2nccc(-n3cc(S(C)(=O)=O)c4ccccc43)n2)c(OC)cc1N(C)CCN(C)C [Example 9, N-(2-(N-(2-(N,N-Dimethylamino)ethyl)-N-methylamino)-4-methoxy-5-(4-(3-(methylsulfonyl)indol-1-yl)pyrimidin-2-ylamino)phenyl) propenamide]
- IC50 [1]: 5860 nM
- IC50 [2]: 1.3 nM
- IC50 [3]: 2.4 nM
- IC50 [4]: 1.1 nM
- IC50 [5]: 3.4 nM
- IC50 [6]: 1.5 nM

SMILES: C=CC(=O)Nc1cc(Nc2nccc(-n3c(=O)[nH]c4ccccc43)n2)c(OC)cc1N(C)CCN(C)C [Example 10, N-(2-(N-(2-(N,N-Dimethylamino)ethyl)-N-methylamino)-4-methoxy-5-(4-(2-oxo-2,3-dihydrobenzimidazol-1-yl)pyrimidin-2-ylamino)phenyl) propenamide]
- IC50 [1]: 12000 nM
- IC50 [2]: 1.2 nM
- IC50 [3]: 1.5 nM
- IC50 [4]: 0.91 nM
- IC50 [5]: 2.2 nM
- IC50 [6]: 1.3 nM

SMILES: C=CC(=O)Nc1cc(Nc2nccc(-c3c[nH]c4c(C)cccc34)n2)c(OC)cc1N(C)CCN(C)C [Example 11, N-(2-(N-(2-(N,N-Dimethylamino)ethyl)-N-methylamino)-4-methoxy-5-(4-(7-methylindol-3-yl)pyrimidin-2-ylamino)phenyl) propenamide]
- IC50 [1]: 4730 nM
- IC50 [2]: 1.3 nM
- IC50 [3]: 2.3 nM
- IC50 [4]: 1 nM
- IC50 [5]: 2.9 nM
- IC50 [6]: 1.5 nM

SMILES: C=CC(=O)Nc1cc(Nc2nccc(-c3c[nH]c4c(C#N)cccc34)n2)c(OC)cc1N(C)CCN(C)C [Example 12, N-(2-(N-(2-(N,N-Dimethylamino)ethyl)-N-methylamino)-4-methoxy-5-(4-(7-cyanoindol-3-yl)pyrimidin-2-ylamino)phenyl) propenamide]
- IC50 [1]: 2560 nM
- IC50 [2]: 1.2 nM
- IC50 [3]: 3.5 nM
- IC50 [4]: 1.1 nM
- IC50 [5]: 5.2 nM
- IC50 [6]: 1.5 nM

SMILES: C=CC(=O)Nc1cc(Nc2nccc(N3CCc4ccccc43)n2)c(OC)cc1N(C)CCN(C)C [Example 13, N-(2-(N-(2-(N,N-Dimethylamino)ethyl)-N-methylamino)-4-methoxy-5-(4-(2,3-dihydroindol-1-yl)pyrimidin-2-ylamino)phenyl) propenamide]
- IC50 [1]: 5810 nM
- IC50 [2]: 1.5 nM
- IC50 [3]: 5.6 nM
- IC50 [4]: 1.7 nM
- IC50 [5]: 9.9 nM
- IC50 [6]: 6.7 nM

SMILES: C=CC(=O)Nc1cc(Nc2nccc(-c3c(C)[nH]c4ccccc34)n2)c(OC)cc1N(C)CCN(C)C [Example 14, N-(2-(N-(2-(N,N-Dimethylamino)ethyl)-N-methylamino)-4-methoxy-5-(4-(2-methylindol-3-yl)pyrimidin-2-ylamino)phenyl) propenamide]
- IC50 [1]: 2980 nM
- IC50 [2]: 1.8 nM
- IC50 [3]: 3.7 nM
- IC50 [4]: 1 nM
- IC50 [5]: 6.1 nM
- IC50 [6]: 5 nM

SMILES: C=CC(=O)Nc1cc(Nc2nccc(-c3n[nH]c4ccccc34)n2)c(OC)cc1N(C)CCN(C)C [Example 15, N-(2-(N-(2-(N,N-Dimethylamino)ethyl)-N-methylamino)-4-methoxy-5-(4-(indazol-3-yl)pyrimidin-2-ylamino)phenyl) propenamide]
- IC50 [1]: 13500 nM
- IC50 [2]: 1.5 nM
- IC50 [3]: 2.9 nM
- IC50 [4]: 1.1 nM
- IC50 [5]: 3.3 nM
- IC50 [6]: 1.9 nM
